Measurements reported in PMC8759731, “Design, synthesis, and evaluation of novel coumarin-dithiocarbamate derivatives (IDs) as anti-colorectal cancer agents” (Journal of Enzyme Inhibition and Medicinal Chemistry, 2021).

Key:
[1] = tested on: SW620 cells; assay: MTS cell viability assay, SW620 cells; type: cell-based; details: Homo sapiens
Text: (§1) Human colorectal cancer cell lines including RKO, SW620 and SW480 were purchased from Chinese Academy of Sciences, a typical cell library culture preservation committee (Shanghai, China). Normal human colon epithelial cell line NCM460 was purchased from ATCC (Washington, DC, USA). RPMI-1640 medium (12633020), foetal bovine serum (FBS, 26170043), penicillin-streptomycin (10378016) and phosphate buffered saline (PBS, 70011044) were purchased from Gibco (Eggenstein, Germany). 5-Fluorouracil (5-FU, E0201010050, purity ≥98%) was purchased from Energy Chemical (Shanghai, China). Dimethyl sulfoxide (DMSO, 41639) was obtained from Sigma-Aldrich (St. Louis, MO). 3–(4,5-dimethylthiazol-2-yl)-5–(3-carboxymethoxyphenyl)-2–(4-sulfophenyl)-2H-tetrazolium (MTS, G1111) was purchased from Promega (Madison, WI, USA). All cell lines were cultured in RPMI-1640 medium supplemented with 10% FBS, penicillin (100 units/mL) and streptomycin ([…]) at 37 °C in a humidified atmosphere containing 5% CO2.
(§2) Cell viability was measured via MTS assay. RKO, SW620, SW480 and NCM460 cells were seeded in 96-well plates at a density of 5000 cells per well for 24 h. After treatment with the test compounds at indicated concentration for another 48 h or 72 h at 37 °C, MTS solution was added to each well and incubated for another 30 min at 37 °C. Then, the absorbance at 490 nm was measured by a BioTek Synergy H4 microplate Reader (Vermont, USA). The IC50 values were calculated with Graphpad 7.0 software packages.

[2] = tested on: SW480 cells; assay: MTS cell viability assay, SW480 cells; type: cell-based; details: Homo sapiens, 72 h
Text: as §1, §2

[3] = biological target: T1, BRD4 (BD1) (Homo sapiens, UniProt O60885); assay: HTRF assay BRD4 (BD1); type: binding
T1 construct: purchased Reaction Biology Corp. RD-11-157
Protocol: (§3) In brief, compounds were serially diluted in Echo plate according to the plate map and DMSO’s final fraction is 0.1%. Then, transferring compounds and DMSO to 384-well assay plate by Echo. After that, 2× Protein and Peptide Mix was added to the assay plate and 2× Detection Mix was then added to assay plate and shook for 30 s. After incubating the plate at room temperature for 1.5 h, the HTRF signals (Excitation wavelength at 340 nm, Emission wavelength at 615 & 665 nm) was read on EnVision (PerkinElmer, UK). (+)-JQ1 (BPS Bioscience, Cat. No. 27402) was used as a positive control. BRD4-1 (RD-11–157) and BRD4-2 (RD-11–158) were purchased from Reaction Biology Corp. (PENN, USA). For Curve fitting, the inhibition values was calculated in Excel using Equation (1): Inhibition %=(Max-Signal)/(Max-Min)*100, and the IC50 values was calculated in XL-Fit using Equation (2): Y = Bottom + (Top-Bottom)/(1+(IC50/X)[…]), Y is %inhibition and X is compound concentration.

[4] = biological target: T2, BRD4 (BD2) (Homo sapiens, UniProt O60885); assay: HTRF assay BRD4 (BD2); type: binding; details: read-out: Inhibitory rate at 10 μM, BRD4 (BD2)
T2 construct: purchased Reaction Biology Corp. RD-11-158
Protocol: as §3

[5] = tested on: SW620 cells; assay: Colony formation, SW620 cells; type: cell-based, human; details: 0 to 32 μM for 24 h, then 10 days
Protocol: (§4) SW620 and SW480 cells were seeded in 6-well plates (1000 cells per well) and cultured in RPMI-1640 medium containing 10% FBS overnight. After the cells treatment with DMSO or compound ID-11 (4, 8, 16, and 32 μM) for 24 h, the culture medium was replaced by fresh RPMI-1640 medium (containing 10% FBS) and continue culturing for another 10 days. Then the cells were washed with PBS and fixed with methanol for 15 min and stained with 0.1% crystal violet for another 30 min. Finally, the cells were washed with running water, air-dried and visualised by photographing.

[6] = tested on: SW480 cells; assay: Colony formation, SW480 cells; type: cell-based, human; details: 0 to 32 μM for 24 h, then 10 days
Protocol: as §4

[7] = tested on: SW620 cells; assay: Cell cycle analysis (PI, flow cytometry), SW620 cells; type: cell-based, human; details: SW620, 16 μM, 24 h
Protocol: Cells were seeded in 6-well plates (40,000 cells per well) and cultured in RPMI-1640 medium containing 10% FBS overnight. Then the cells were exposed to DMSO or compound ID-11 (8 or 16 μM) for 24 h. After that, cells were collected, washed with cold PBS for twice and fixed in 75% ethanol overnight at 4 °C. Subsequently, ethanol was removed and suspended in PBS for twice, and then RNase A and propidium iodide (PI) (Multi Sciences, Hangzhou, China) was added and keep in the darkness for 30 min. Finally, the percentages of cells in different cell cycle phases were measured using a FACS Calibur flow cytometer (Bectone Dickinson, San Jose, CA, USA).

[8] = tested on: SW620 cells; assay: Annexin V-FITC/PI apoptosis analysis, SW620 cells; type: cell-based, human; details: SW620, 16 μM, 24 h
Protocol: (§5) Cell apoptosis was determined using Annexin V-FITC/PI Apoptosis Detection Kit (BD Biosciences, New Jersey, USA) in according with manufacturer's instruction. Briefly, cells were cultured in 6-well plates (40 000 cells per well) till reaching logarithmic growth phase and then treatment with DMSO or compound ID-11 (8 or 16 μM) for 24 h. Afterwards, the cells were harvested, washed with PBS for twice and stained with 100 μL of the mixture of Annexin V/FITC and PI in binding buffer (v/v, 5: 5: 100) in the darkness for 30 min. Another 200 μL binding buffer was added before detection. The apoptotic cells were then analysed by FACS Calibur flow cytometry immediately.

[9] = tested on: SW480 cells; assay: Annexin V-FITC/PI apoptosis analysis, SW480 cells; type: cell-based, human; details: SW480, 16 μM, 24 h
Protocol: as §5

[10] = tested on: SW620 cells; assay: Quantitative RT-PCR, SW620 cells; type: cell-based, human; details: SW620, 0 to 24 μM, 24 h, qRT-PCR
Protocol: (§6) Cells (50,000 cells per well) incubated in 6-well plates were treated with compound ID-11 for 24 h. After that, the total RNA was extracted using Total RNA Extraction Reagent (Invitrogen, USA) according to the manufacturer’s instructions and quantified with NanoDrop 2000 (Nanodrop, USA). Then the cDNA was synthesized from total RNA using High-Capacity cDNA Reverse Transcription Kit (Applied Biosystems, USA). The SYBR Green Master reagents (Applied Biosystems, USA) was used to determine the relative expression of mRNA level by quantitative real-time PCR (qRT-PCR). The primer sequences are shown below.

[11] = tested on: SW480 cells; assay: Quantitative RT-PCR, SW480 cells; type: cell-based, human; details: SW480, 0 to 24 μM, 24 h, qRT-PCR
Protocol: as §6

- IC50 ([1]; SW-620, 72 h): 8.81 µM
- IC50 [2]: 3.57 µM
- inhibition at 10 µM ([3]; 10 μM, read-out: Inhibitory rate at 10 μM, BRD4 (BD1)): 68.9%
- IC50 ([3]; mean ± SD of three independent experiments): 7.8 ± 2.2 µM
- inhibition at 10 µM [4]: 35.7%
Structure (SMILES): O=c1ccc2cc(CSC(=S)n3ccnc3)ccc2o1 [ID-11, (2-Oxo-2H-chromen-6-yl)methyl 1H-imidazole-1-carbodithioate]
- viability at 10 µM ([1]; SW-620, 10 μM, 72 h): 43.9%
- viability at 10 µM ([2]; 10 μM): 20.2%
- colony formation [5]: effectively inhibited
- colony formation [6]: effectively inhibited
- cell cycle distribution G2 (G2/M phase) [7]: 33.13%
- total apoptosis rate [8]: 73.31%
- total apoptosis rate [9]: 23.23%
- mRNA relative expression level of Bcl-2 [10]: also decreased in a concentration dependent way
- mRNA relative expression level of c-Myc [10]: also decreased in a concentration dependent way
- mRNA relative expression level of Bcl-2 [11]: also decreased in a concentration dependent way
- mRNA relative expression level of c-Myc [11]: also decreased in a concentration dependent way
